In ChEMBL document CHEMBL5532698, “2,3-Dihydroquinazolin-4(1H)-ones and quinazolin-4(3H)-ones as broad-spectrum cytotoxic agents and their impact on tubulin polymerisation” (RSC Med Chem, 2024):
The source made the active and inactive calls. The rule behind the calls is not given here.

Tests used:
DU-145 [1] = experiment: Antiproliferative activity against human DU-145 cells assessed as cell growth inhibition incubated for 72 hrs by MTT assay; format: functional
U-87 MG [2] = experiment: Antiproliferative activity against human U87 cells assessed as cell growth inhibition incubated for 72 hrs by MTT assay; format: functional, U-87MG ATCC
NCI-H460 [3] = experiment: Antiproliferative activity against human NCI-H460 cells assessed as cell growth inhibition at 25 uM incubated for 72 hrs by MTT assay relative to control; format: functional
A-431 [4] = experiment: Antiproliferative activity against human A-431 cells assessed as cell growth inhibition incubated for 72 hrs by MTT assay; format: functional
DU-145 [5] = experiment: Antiproliferative activity against human DU-145 cells assessed as cell growth inhibition at 25 uM incubated for 72 hrs by MTT assay relative to control; format: functional
[6] = Cytotoxicity against human MCF-10A cells assessed as cell growth inhibition at 25 uM incubated for 72 hrs by MTT assay relative to control; format: toxicity, cell-based
MIA PaCa-2 [7] = experiment: Antiproliferative activity against human MIA PaCa-2 cells assessed as cell growth inhibition incubated for 72 hrs by MTT assay; format: functional
HT-29 [8] = experiment: Antiproliferative activity against human HT-29 cells assessed as cell growth inhibition incubated for 72 hrs by MTT assay; format: functional
MCF7 [9] = experiment: Antiproliferative activity against human MCF7 cells assessed as cell growth inhibition at 25 uM incubated for 72 hrs by MTT assay relative to control; format: functional
MIA PaCa-2 [10] = experiment: Antiproliferative activity against human MIA PaCa-2 cells assessed as cell growth inhibition at 25 uM incubated for 72 hrs by MTT assay relative to control; format: functional
MCF7 [11] = experiment: Antiproliferative activity against human MCF7 cells assessed as cell growth inhibition incubated for 72 hrs by MTT assay; format: functional
[12] = Cytotoxicity against human MCF-10A cells assessed as cell growth inhibition incubated for 72 hrs by MTT assay; format: toxicity, cell-based
[13] = Antiproliferative activity against human SJG2 cells assessed as cell growth inhibition at 25 uM incubated for 72 hrs by MTT assay relative to control; format: functional; conditions: SJ-G2
[14] = Antiproliferative activity against human SJG2 cells assessed as cell growth inhibition incubated for 72 hrs by MTT assay; format: functional; conditions: SJ-G2
BE(2)-C [15] = experiment: Antiproliferative activity against human BE2C cells assessed as cell growth inhibition at 25 uM incubated for 72 hrs by MTT assay relative to control; format: functional
Tubulin (Homo sapiens) [16] = target: T1, Tubulin (Homo sapiens) (UniProt P68371+Q9H4B7+P0DPH7+P68366+Q13509+Q71U36+P04350+Q3ZCM7+P07437+P68363+Q9BQE3+Q6PEY2+Q13885+Q9BVA1+Q9BUF5); experiment: Inhibition of tubulin (unknown origin) polymerization assessed as reduction microtubule formation at 10 uM by fluorometric analysis; format: protein-complex assay
HT-29 [17] = experiment: Antiproliferative activity against human HT-29 cells assessed as cell growth inhibition at 25 uM incubated for 72 hrs by MTT assay relative to control; format: functional
A2780 [18] = experiment: Antiproliferative activity against human A2780 cells assessed as cell growth inhibition incubated for 72 hrs by MTT assay; format: functional
BE(2)-C [19] = experiment: Antiproliferative activity against human BE2C cells assessed as cell growth inhibition incubated for 72 hrs by MTT assay; format: functional
U-87 MG [20] = experiment: Antiproliferative activity against human U87 cells assessed as cell growth inhibition at 25 uM incubated for 72 hrs by MTT assay relative to control; format: functional, U-87MG ATCC
NCI-H460 [21] = experiment: Antiproliferative activity against human NCI-H460 cells assessed as cell growth inhibition incubated for 72 hrs by MTT assay; format: functional
A-431 [22] = experiment: Antiproliferative activity against human A-431 cells assessed as cell growth inhibition at 25 uM incubated for 72 hrs by MTT assay relative to control; format: functional
A2780 [23] = experiment: Antiproliferative activity against human A2780 cells assessed as cell growth inhibition at 25 uM incubated for 72 hrs by MTT assay relative to control; format: functional
A549 = experiment: Antiproliferative activity against human A549 cells assessed as reduction in cell viability incubated for 48 hrs by MTT assay; format: functional, cell-based; conditions: A549, 48 h
HeLa = experiment: Antiproliferative activity against human HeLa cells assessed as reduction in cell viability incubated for 48 hrs by MTT assay; format: functional, cell-based
HCT-116 = experiment: Antiproliferative activity against human HCT-116 cells assessed as reduction in cell viability incubated for 48 hrs by MTT assay; format: functional, cell-based; conditions: HCT-116, 48 h
MIA PaCa-2 [24] = experiment: Induction of G2/M phase cell cycle arrest in human MIA PaCa-2 cells assessed as sub G1 phase cells at 0.1 uM incubated for 24 hrs by PI/RNase staining based analysis (reference value: 4 +/- 2%); format: functional
MIA PaCa-2 [25] = experiment: Induction of G2/M phase cell cycle arrest in human MIA PaCa-2 cells assessed as S phase cells at 0.5 uM incubated for 24 hrs by PI/RNase staining based analysis (reference value: 11 +/- 1%); format: functional
MIA PaCa-2 [26] = experiment: Induction of G2/M phase cell cycle arrest in human MIA PaCa-2 cells assessed as G1 phase cells at 0.5 uM incubated for 24 hrs by PI/RNase staining based analysis (reference value: 66 +/- 2%); format: functional
MIA PaCa-2 [27] = experiment: Induction of G2/M phase cell cycle arrest in human MIA PaCa-2 cells assessed as G1 phase cells at 0.1 uM incubated for 24 hrs by PI/RNase staining based analysis (reference value: 66 +/- 2%); format: functional
MIA PaCa-2 [28] = experiment: Induction of G2/M phase cell cycle arrest in human MIA PaCa-2 cells assessed as sub G1 phase cells at 0.5 uM incubated for 24 hrs by PI/RNase staining based analysis (reference value: 4 +/- 2%); format: functional
HepG2 = experiment: Antiproliferative activity against human HepG2 cells assessed as reduction in cell viability incubated for 48 hrs by MTT assay; format: functional, cell-based; conditions: HepG2, 48 h
WRL68 = experiment: Antiproliferative activity against human WRL68 cells assessed as reduction in cell viability incubated for 48 hrs by MTT assay; format: functional, cell-based; conditions: WRL68, 48 h
MIA PaCa-2 [29] = experiment: Induction of G2/M phase cell cycle arrest in human MIA PaCa-2 cells at 0.1 uM incubated for 24 hrs by PI/RNase staining based analysis (reference value: 20 +/- 1%); format: functional
MIA PaCa-2 [30] = experiment: Induction of G2/M phase cell cycle arrest in human MIA PaCa-2 cells assessed as S phase cells at 0.1 uM incubated for 24 hrs by PI/RNase staining based analysis (reference value: 11 +/- 1%); format: functional
MIA PaCa-2 [31] = experiment: Induction of G2/M phase cell cycle arrest in human MIA PaCa-2 cells at 0.5 uM incubated for 24 hrs by PI/RNase staining based analysis (reference value: 20 +/- 1%); format: functional
Tubulin (Homo sapiens) [32] = target: T1, Tubulin (Homo sapiens); experiment: Inhibition of tubulin (unknown origin) polymerization assessed as reduction microtubule formation at 10 uM measured after approximately 1 hrs by fluorometric analysis; format: protein-complex assay
MIA PaCa-2 [33] = experiment: Induction of G2/M phase cell cycle arrest in human MIA PaCa-2 cells at 5 uM incubated for 24 hrs by PI/RNase staining based analysis (reference value: 20 +/- 1%); format: functional
MIA PaCa-2 [34] = experiment: Induction of G2/M phase cell cycle arrest in human MIA PaCa-2 cells assessed as G1 phase cells at 1.0 uM incubated for 24 hrs by PI/RNase staining based analysis (reference value: 66 +/- 2%); format: functional
MIA PaCa-2 [35] = experiment: Induction of G2/M phase cell cycle arrest in human MIA PaCa-2 cells at 1.0 uM incubated for 24 hrs by PI/RNase staining based analysis (reference value: 20 +/- 1%); format: functional
MIA PaCa-2 [36] = experiment: Induction of G2/M phase cell cycle arrest in human MIA PaCa-2 cells assessed as sub G1 phase cells at 5 uM incubated for 24 hrs by PI/RNase staining based analysis (reference value: 4 +/- 2%); format: functional
MIA PaCa-2 [37] = experiment: Induction of G2/M phase cell cycle arrest in human MIA PaCa-2 cells assessed as S phase cells at 5 uM incubated for 24 hrs by PI/RNase staining based analysis (reference value: 11 +/- 1%); format: functional
MIA PaCa-2 [38] = experiment: Induction of G2/M phase cell cycle arrest in human MIA PaCa-2 cells assessed as S phase cells at 1.0 uM incubated for 24 hrs by PI/RNase staining based analysis (reference value: 11 +/- 1%); format: functional
MIA PaCa-2 [39] = experiment: Induction of G2/M phase cell cycle arrest in human MIA PaCa-2 cells assessed as sub G1 phase cells at 1.0 uM incubated for 24 hrs by PI/RNase staining based analysis (reference value: 4 +/- 2%); format: functional
MIA PaCa-2 [40] = experiment: Induction of G2/M phase cell cycle arrest in human MIA PaCa-2 cells assessed as G1 phase cells at 5 uM incubated for 24 hrs by PI/RNase staining based analysis (reference value: 66 +/- 2%); format: functional

Structure (SMILES)	GI50 (DU-145 [1]) [µM]	GI50 (U-87 MG [2]) [µM]	inhibition at 25 µM (NCI-H460 [3]) [%]	GI50 (A-431 [4]) [µM]	inhibition at 25 µM (DU-145 [5]) [%]	inhibition at 72 h, 25 µM [6] [%]	GI50 (MIA PaCa-2 [7]) [µM]	GI50 (HT-29 [8]) [µM]	inhibition at 25 µM (MCF7 [9]) [%]	inhibition at 25 µM (MIA PaCa-2 [10]) [%]	GI50 (MCF7 [11]) [µM]	GI50 at 72 h [12] [µM]	inhibition at 25 µM [13] [%]	GI50 [14] [µM]	inhibition at 25 µM (BE(2)-C [15]) [%]	inhibition (Tubulin (Homo sapiens) [16])	inhibition at 25 µM (HT-29 [17]) [%]	GI50 (A2780 [18]) [µM]	GI50 (BE(2)-C [19]) [µM]	inhibition at 25 µM (U-87 MG [20]) [%]	further results
COc1ccc(/C=C/c2nc3ccccc3c(=O)[nH]2)cc1	45	> 50	60	33	41	60	5.5	3.8	> 100	67	2.6	11	89	6.4	66	Active	78	12	4.4	24	GI50 (NCI-H460 [21]): 11 µM; inhibition at 25 µM (A-431 [22]): 45%; inhibition at 25 µM (A2780 [23]): 66%
COC(=O)Nc1nc2cc(C(=O)c3cccs3)ccc2[nH]1 [NOCODAZOLE]																Active					IC50 (A549): 5.09 µM; IC50 (HeLa): 2.22 µM; IC50 (HCT-116): 1.81 µM; Activity (MIA PaCa-2 [24]): 21%; Activity (MIA PaCa-2 [25]): 9%; Activity (MIA PaCa-2 [26]): 16%; Activity (MIA PaCa-2 [27]): 34%; Activity (MIA PaCa-2 [28]): 14%; IC50 (HepG2): 5.08 µM; IC50 (WRL68): 7.56 µM; Activity (MIA PaCa-2 [29]): 37%; Activity (MIA PaCa-2 [30]): 8%; Activity (MIA PaCa-2 [31]): 60%
O=C1NC(c2cccc3ccccc23)Nc2ccccc21 (centres undefined)	0.089	0.22	> 100	0.02	> 100	> 100	0.048	0.02	> 100	94	0.075	0.04	> 100	0.05	> 100		> 100	0.031	0.027	93	Activity (MIA PaCa-2 [24]): 4%; Activity (MIA PaCa-2 [25]): 11%; Activity (MIA PaCa-2 [26]): 17%; Activity (MIA PaCa-2 [27]): 63%; Activity (MIA PaCa-2 [28]): 17%; inhibition (Tubulin (Homo sapiens) [32]): Active; Activity (MIA PaCa-2 [29]): 22%; Activity (MIA PaCa-2 [30]): 11%; GI50 (NCI-H460 [21]): 0.037 µM; inhibition at 25 µM (A-431 [22]): > 100%; Activity (MIA PaCa-2 [31]): 55%; inhibition at 25 µM (A2780 [23]): > 100%
COc1ccccc1/C=C/c1nc2ccccc2c(=O)[nH]1	0.9	1.4	> 100	0.33	> 100	> 100	0.37	0.26	> 100	> 100	0.35	0.56	> 100	0.79	> 100	Active	> 100	0.33	0.31	> 100	Activity (MIA PaCa-2 [33]): 78%; Activity (MIA PaCa-2 [34]): 56%; Activity (MIA PaCa-2 [35]): 27%; Activity (MIA PaCa-2 [36]): 6%; Activity (MIA PaCa-2 [37]): 6%; Activity (MIA PaCa-2 [38]): 12%; Activity (MIA PaCa-2 [39]): 5%; GI50 (NCI-H460 [21]): 0.42 µM; inhibition at 25 µM (A-431 [22]): > 100%; Activity (MIA PaCa-2 [40]): 10%; inhibition at 25 µM (A2780 [23]): > 100%
